What was measured:
Type in all cases: cell-based
[1] = target: hKv1.3 (Homo sapiens, UniProt P22001); test: cell-based; conditions: Kv1.3 (IWQ) IC50 (nM, Avg)
[2] = test system: IL-2 secretion from T cells in human whole blood; conditions: read-out: WB (IL-2) IC50 (nM, Avg)
[3] = test system: IFN-g secretion from T cells in human whole blood; conditions: read-out: WB (IFNg) IC50 (nM, Avg)

hKv1.3, sequence (P22001 whole entry): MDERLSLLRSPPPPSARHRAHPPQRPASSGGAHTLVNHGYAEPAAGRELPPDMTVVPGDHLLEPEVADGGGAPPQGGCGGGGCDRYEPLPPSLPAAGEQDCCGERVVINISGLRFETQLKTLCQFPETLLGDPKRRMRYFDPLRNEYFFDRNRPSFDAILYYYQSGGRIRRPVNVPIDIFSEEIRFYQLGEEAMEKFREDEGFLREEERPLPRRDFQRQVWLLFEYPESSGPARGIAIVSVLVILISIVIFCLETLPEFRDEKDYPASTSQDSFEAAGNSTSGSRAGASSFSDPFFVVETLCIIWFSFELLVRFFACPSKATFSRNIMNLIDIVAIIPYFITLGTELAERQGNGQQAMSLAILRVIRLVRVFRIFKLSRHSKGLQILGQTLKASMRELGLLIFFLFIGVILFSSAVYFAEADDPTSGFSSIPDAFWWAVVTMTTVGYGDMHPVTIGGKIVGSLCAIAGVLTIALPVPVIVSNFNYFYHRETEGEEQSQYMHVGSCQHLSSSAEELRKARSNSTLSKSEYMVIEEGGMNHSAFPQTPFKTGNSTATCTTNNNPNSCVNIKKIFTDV

Row | Structure (SMILES) | IC50 [1] [nM] | IC50 [2] [nM] | IC50 [3] [nM]
1 | CC[C@H](C)[C@@H]1NC(=O)[C@@H](NC(=O)[C@H](CO)NC(=O)[C@@H](N)CCCNC(=N)N)CSSC[C@@H](C(N)=O)NC(=O)[C@H]([C@@H](C)O)NC(=O)CNC(=O)[C@@H]2CSSC[C@@H]3NC(=O)[C@H](CCCCN)NC(=O)[C@H](Cc4ccccc4)NC(=O)[C@H](C)NC(=O)[C@H]([C@@H](C)O)NC(=O)[C@H](CSSC[C@H](NC(=O)[C@H](Cc4ccccc4)NC(=O)[C@H](CO)NC(=O)[C@H](CC(C)C)NC(=O)[C@H](CCCNC(=N)N)NC(=O)[C@H](Cc4ccc(O)cc4)NC(=O)[C@H](CCCCN)NC(=O)[C@H](Cc4ccccc4)NC(=O)[C@H](CO)NC(=O)[C@H](Cc4c[nH]cn4)NC(=O)[C@H](CCCCN)NC3=O)C(=O)N[C@@H](CCCNC(=N)N)C(=O)N[C@@H](CCCCN)C(=O)N[C@@H]([C@@H](C)O)C(=O)N2)NC(=O)[C@H](CCCNC(=N)N)NC(=O)[C@H](CO)NC(=O)[C@H](CCCCN)NC(=O)[C@@H]2CCCN2C(=O)[C@H]([C@@H](C)CC)NC(=O)[C@H]([C@@H](C)O)NC(=O)[C@H](CC(=O)O)NC1=O [[Lys16, Phe21]ShK-amide] | 0.246 | 1.47 | 2.04
2 | CC[C@H](C)[C@@H]1NC(=O)[C@@H](NC(=O)[C@H](CO)NC(=O)[C@@H](N)CCCNC(=N)N)CSSC[C@@H](C(N)=O)NC(=O)[C@H]([C@@H](C)O)NC(=O)CNC(=O)[C@@H]2CSSC[C@@H]3NC(=O)[C@H](CCCCN)NC(=O)[C@H](Cc4ccccc4)NC(=O)[C@H](C)NC(=O)[C@H]([C@@H](C)O)NC(=O)[C@H](CSSC[C@H](NC(=O)[C@H](Cc4ccccc4)NC(=O)[C@H](CO)NC(=O)[C@H](CC(C)C)NC(=O)[C@H](CCCNC(=N)N)NC(=O)[C@H](Cc4ccc(O)cc4)NC(=O)[C@H](CCCCN)NC(=O)[C@H](CO)NC(=O)[C@H](CO)NC(=O)[C@H](Cc4c[nH]cn4)NC(=O)[C@H](CCCCN)NC3=O)C(=O)N[C@@H](CCCNC(=N)N)C(=O)N[C@@H](CCCCN)C(=O)N[C@@H]([C@@H](C)O)C(=O)N2)NC(=O)[C@H](CCCNC(=N)N)NC(=O)[C@H](CO)NC(=O)[C@H](CCCCN)NC(=O)[C@@H]2CCCN2C(=O)[C@H]([C@@H](C)CC)NC(=O)[C@H]([C@@H](C)O)NC(=O)[C@H](CC(=O)O)NC1=O [[Lys16, Ser21]ShK-amide] | 0.068 | 1.45 | 1.71
3 | CC[C@H](C)[C@@H]1NC(=O)[C@@H](NC(=O)[C@H](CO)NC(=O)[C@@H](N)CCCNC(=N)N)CSSC[C@@H](C(N)=O)NC(=O)[C@H]([C@@H](C)O)NC(=O)CNC(=O)[C@@H]2CSSC[C@@H]3NC(=O)[C@H](CCCCN)NC(=O)[C@H](Cc4ccccc4)NC(=O)[C@H](C)NC(=O)[C@H]([C@@H](C)O)NC(=O)[C@H](CSSC[C@H](NC(=O)[C@H](Cc4ccccc4)NC(=O)[C@H](CO)NC(=O)[C@H](CC(C)C)NC(=O)[C@H](CCCNC(=N)N)NC(=O)[C@H](Cc4ccc(O)cc4)NC(=O)[C@H](CCCCN)NC(=O)[C@H]([C@@H](C)O)NC(=O)[C@H](CO)NC(=O)[C@H](Cc4c[nH]cn4)NC(=O)[C@H](CCCCN)NC3=O)C(=O)N[C@@H](CCCNC(=N)N)C(=O)N[C@@H](CCCCN)C(=O)N[C@@H]([C@@H](C)O)C(=O)N2)NC(=O)[C@H](CCCNC(=N)N)NC(=O)[C@H](CO)NC(=O)[C@H](CCCCN)NC(=O)[C@@H]2CCCN2C(=O)[C@H]([C@@H](C)CC)NC(=O)[C@H]([C@@H](C)O)NC(=O)[C@H](CC(=O)O)NC1=O [[Lys16, Thr21]ShK-amide] | 0.058 | 1.55 | 2.98
4 | CC[C@H](C)[C@@H]1NC(=O)[C@@H](NC(=O)[C@H](CO)NC(=O)[C@@H](N)CCCNC(=N)N)CSSC[C@@H](C(N)=O)NC(=O)[C@H]([C@@H](C)O)NC(=O)CNC(=O)[C@@H]2CSSC[C@@H]3NC(=O)[C@H](CCCCN)NC(=O)[C@H](Cc4ccccc4)NC(=O)[C@H](C)NC(=O)[C@H]([C@@H](C)O)NC(=O)[C@H](CSSC[C@H](NC(=O)[C@H](Cc4ccccc4)NC(=O)[C@H](CO)NC(=O)[C@H](CC(C)C)NC(=O)[C@H](CCCNC(=N)N)NC(=O)[C@H](Cc4ccc(O)cc4)NC(=O)[C@H](CCCCN)NC(=O)[C@H](Cc4c[nH]c5ccccc45)NC(=O)[C@H](CO)NC(=O)[C@H](Cc4c[nH]cn4)NC(=O)[C@H](CCCCN)NC3=O)C(=O)N[C@@H](CCCNC(=N)N)C(=O)N[C@@H](CCCCN)C(=O)N[C@@H]([C@@H](C)O)C(=O)N2)NC(=O)[C@H](CCCNC(=N)N)NC(=O)[C@H](CO)NC(=O)[C@H](CCCCN)NC(=O)[C@@H]2CCCN2C(=O)[C@H]([C@@H](C)CC)NC(=O)[C@H]([C@@H](C)O)NC(=O)[C@H](CC(=O)O)NC1=O [[Lys16, Trp21]ShK-amide] | 0.782 | 3.86 | 3.19
5 | CC[C@H](C)[C@@H]1NC(=O)[C@@H](NC(=O)[C@H](CO)NC(=O)[C@@H](N)CCCNC(=N)N)CSSC[C@@H](C(N)=O)NC(=O)[C@H]([C@@H](C)O)NC(=O)CNC(=O)[C@@H]2CSSC[C@@H]3NC(=O)[C@H](CCCCN)NC(=O)[C@H](Cc4ccccc4)NC(=O)[C@H](C)NC(=O)[C@H]([C@@H](C)O)NC(=O)[C@H](CSSC[C@H](NC(=O)[C@H](Cc4ccccc4)NC(=O)[C@H](CO)NC(=O)[C@H](CC(C)C)NC(=O)[C@H](CCCNC(=N)N)NC(=O)[C@H](Cc4ccc(O)cc4)NC(=O)[C@H](CCCCN)NC(=O)[C@H](Cc4ccc(O)cc4)NC(=O)[C@H](CO)NC(=O)[C@H](Cc4c[nH]cn4)NC(=O)[C@H](CCCCN)NC3=O)C(=O)N[C@@H](CCCNC(=N)N)C(=O)N[C@@H](CCCCN)C(=O)N[C@@H]([C@@H](C)O)C(=O)N2)NC(=O)[C@H](CCCNC(=N)N)NC(=O)[C@H](CO)NC(=O)[C@H](CCCCN)NC(=O)[C@@H]2CCCN2C(=O)[C@H]([C@@H](C)CC)NC(=O)[C@H]([C@@H](C)O)NC(=O)[C@H](CC(=O)O)NC1=O [[Lys16, Tyr21]ShK-amide] | 0.246 | 2.83 | 3.19
6 | CC[C@H](C)[C@@H]1NC(=O)[C@@H](NC(=O)[C@H](CO)NC(=O)[C@@H](N)CCCNC(=N)N)CSSC[C@@H](C(N)=O)NC(=O)[C@H]([C@@H](C)O)NC(=O)CNC(=O)[C@@H]2CSSC[C@@H]3NC(=O)[C@H](CCCCN)NC(=O)[C@H](Cc4ccccc4)NC(=O)[C@H](C)NC(=O)[C@H]([C@@H](C)O)NC(=O)[C@H](CSSC[C@H](NC(=O)[C@H](Cc4ccccc4)NC(=O)[C@H](CO)NC(=O)[C@H](CC(C)C)NC(=O)[C@H](CCCNC(=N)N)NC(=O)[C@H](Cc4ccc(O)cc4)NC(=O)[C@H](CCCCN)NC(=O)[C@H](C(C)C)NC(=O)[C@H](CO)NC(=O)[C@H](Cc4c[nH]cn4)NC(=O)[C@H](CCCCN)NC3=O)C(=O)N[C@@H](CCCNC(=N)N)C(=O)N[C@@H](CCCCN)C(=O)N[C@@H]([C@@H](C)O)C(=O)N2)NC(=O)[C@H](CCCNC(=N)N)NC(=O)[C@H](CO)NC(=O)[C@H](CCCCN)NC(=O)[C@@H]2CCCN2C(=O)[C@H]([C@@H](C)CC)NC(=O)[C@H]([C@@H](C)O)NC(=O)[C@H](CC(=O)O)NC1=O [[Lys16, VaI21]ShK-amide] | 0.344 | 4.8 | 6.65
7 | CC[C@H](C)[C@@H]1NC(=O)[C@@H](NC(=O)[C@H](CO)NC(=O)[C@@H](N)CCCNC(=N)N)CSSC[C@@H](C(=O)O)NC(=O)[C@H]([C@@H](C)O)NC(=O)CNC(=O)[C@@H]2CSSC[C@@H]3NC(=O)[C@H](CCCCN)NC(=O)[C@H](Cc4ccccc4)NC(=O)[C@H](C)NC(=O)[C@H]([C@@H](C)O)NC(=O)[C@H](CSSC[C@H](NC(=O)[C@H](Cc4ccccc4)NC(=O)[C@H](CO)NC(=O)[C@H](CC(C)C)NC(=O)[C@H](CCCNC(=N)N)NC(=O)[C@H](Cc4ccc(O)cc4)NC(=O)[C@H](CCCCN)NC(=O)[C@H](C)NC(=O)[C@H](CO)NC(=O)[C@H](Cc4c[nH]cn4)NC(=O)[C@H](CCCCN)NC3=O)C(=O)N[C@@H](CCCNC(=N)N)C(=O)N[C@@H](CCCCN)C(=O)N[C@@H]([C@@H](C)O)C(=O)N2)NC(=O)[C@H](CCCNC(=N)N)NC(=O)[C@H](CO)NC(=O)[C@H](CCCCN)NC(=O)[C@@H]2CCCN2C(=O)[C@H]([C@@H](C)CC)NC(=O)[C@H]([C@@H](C)O)NC(=O)[C@H](CC(=O)O)NC1=O [[Lys16,A1a21]ShK] | 0.076 | 0.872 | 1.33
8 | CC[C@H](C)[C@@H]1NC(=O)[C@@H](NC(=O)[C@H](CO)NC(=O)[C@@H](N)CCCNC(=N)N)CSSC[C@@H](C(=O)O)NC(=O)[C@H]([C@@H](C)O)NC(=O)CNC(=O)[C@@H]2CSSC[C@@H]3NC(=O)[C@H](CCCCN)NC(=O)[C@H](Cc4ccccc4)NC(=O)[C@H](C)NC(=O)[C@H]([C@@H](C)O)NC(=O)[C@H](CSSC[C@H](NC(=O)[C@H](Cc4ccccc4)NC(=O)[C@H](CO)NC(=O)[C@H](CC(C)C)NC(=O)[C@H](CCCNC(=N)N)NC(=O)[C@H](Cc4ccc(O)cc4)NC(=O)[C@H](CCCCN)NC(=O)[C@H](CCSC)NC(=O)[C@H](CO)NC(=O)[C@H](Cc4c[nH]cn4)NC(=O)[C@H](CCCNC(=N)N)NC3=O)C(=O)N[C@@H](CCCNC(=N)N)C(=O)N[C@@H](CCCCN)C(=O)N[C@@H]([C@@H](C)O)C(=O)N2)NC(=O)[C@H](CCCNC(=N)N)NC(=O)[C@H](CO)NC(=O)[C@H](CCCCN)NC(=O)[C@@H]2CCCN2C(=O)[C@H]([C@@H](C)CC)NC(=O)[C@H]([C@@H](C)O)NC(=O)[C@H](CC(=O)O)NC1=O [[Lys16,Arg18]ShK] | 0.425 | 0.077 | 0.097

— US20120121591A1 (priority 2009, published 2012)
